For data set [1], the target named is recombinant human secreted phospholipase A2. The conditions noted are these: guinea pig lung tissue; data from U.S. Pat. No. 5,654,326; read-out: Tissue test secreted PLA2 Apparent KB; cited from earlier work.
Data set [2] has the same target. The conditions noted are these: cited from earlier work.
A short description of data set [3]: Assay III: Rat Plasma Pharmacokinetics Study (oral bioavailability). The class given is in vivo, Rat (Fischer 344). Here is the method:
The bioavailability of the compound of the invention, ((3-(2-amino-1,2-dioxoethyl)-1-((1,1'-biphenyl)-3-ylmethyl)-2-methyl-1H-indol-4-yl)oxy)acetic acid N,N-diethylglycolamido ester, was determined using a Rat Plasma Pharmacokinetics Study:
The purpose of this assay was to evaluate and compare the oral delivery for selected sPLA2 inhibitors.
The amount of sPLA2 inhibitor was corrected for free acid equivalents.
Suspension of sPLA2 inhibitor in 10% Acacia, prepared just prior to dose administration
Dose: 10 mg/kg (of the parent acid)
Blood samples (0.8 ml) were obtained at the following times: 0.5, 1, 2, 4, 8 and 24 hours (2 rats/timepoint)
Plasma was assayed by HPLC to measure concentrations of the different sPLA2 inhibitors (as free acids).
Cmax (maximal plasma concentrations), and AUC values were determined from the mean plasma concentration-time profiles.

The values below come from patent US6274616A, “N,N-diethylglycolamido ester prodrugs of indole sPLA2 inhibitors” (Eli Lilly and Company, priority 2000, dated 2001).

A word on the IC50: it is the concentration needed to halve the response being measured.

On to `Cc1c(C(=O)C(N)=O)c2c(OCC(=O)O)cccc2n1Cc1cccc(-c2ccccc2)c1` [Compound of formula (II), ((3-(2-amino-1,2-dioxoethyl)-1-((1,1'-biphenyl)-3-ylmethyl)-2-methyl-1H-indol-4-yl)oxy)acetic acid], for which, in data set [1], the Kb was 57 ± 11 nM. In data set [2] (chromogenic assay, 3-4 tests, data from U.S. Pat. No. 5,654,326, read-out: Inhibition of human secreted PLA2 IC50 ± mean deviation (3-4 tests)), the IC50 is 4.33 ± 2.31 nM. Moreover, the “inhibiting sPLA2 (conclusion in words)” value in data set [2] (conclusion of Assay 1, Table I) is “highly active in inhibiting sPLA2”.
In the case of `CCN(CC)C(=O)COC(=O)COc1cccc2c1c(C(=O)C(N)=O)c(C)n2Cc1cccc(-c2ccccc2)c1` [N,N-diethylglycolamido, ((3-(2-amino-1,2-dioxoethyl)-1-((1,1'-biphenyl)-3-ylmethyl)-2-methyl-1H-indol-4-yl)oxy)acetic acid N,N-diethylglycolamido ester], the “oral bioavailability compared with other esters (in words)” value in data set [3] (conclusion from Table 3) is given as “unexpectedly more bioavailable than many other esters of the sPLA2 inhibitor”; in data set [3] (conclusion from Table 3, listed as compound of formula (I)) it was “highly bioavailable upon oral administration compared to other common ester type prodrugs”.
